Laboratory results reported in PubChem BioAssay (NCI).
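Each compound was tested at five concentrations against cells in 96-well plates for 48 hours. TGI is the concentration that stops growth completely.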

Key:
Assay in all cases: DTP human tumour cell line panel, 48 h
SR leukemia = system: SR leukemia
SK-MEL-5 melanoma = system: SK-MEL-5 melanoma
OVCAR-5 ovarian = system: OVCAR-5 ovarian
EKVX NSCLC = system: EKVX NSCLC
HOP-92 NSCLC = system: HOP-92 NSCLC
SF-268 CNS = system: SF-268 CNS
KM12 colon = system: KM12 colon
U251 CNS = system: U251 CNS
HS 578T breast = system: HS 578T breast
SK-MEL-2 melanoma = system: SK-MEL-2 melanoma
NCI-H23 lung = system: NCI-H23 lung
SK-OV-3 ovarian = system: SK-OV-3 ovarian
NCI/ADR-RES ovarian = system: NCI/ADR-RES ovarian
HT29 colon = system: HT29 colon
SF-539 CNS = system: SF-539 CNS
SW-620 colon = system: SW-620 colon
HOP-62 NSCLC = system: HOP-62 NSCLC
NCI-H522 lung = system: NCI-H522 lung
OVCAR-3 ovarian = system: OVCAR-3 ovarian
DU-145 prostate = system: DU-145 prostate
OVCAR-8 ovarian = system: OVCAR-8 ovarian
RPMI-8226 leukemia = system: RPMI-8226 leukemia
OVCAR-4 ovarian = system: OVCAR-4 ovarian
MDA-MB-435 = system: MDA-MB-435
MDA-MB-231 breast = system: MDA-MB-231 breast
RXF 393 renal = system: RXF 393 renal
MCF7 breast = system: MCF7 breast
K-562 leukemia = system: K-562 leukemia
NCI-H226 lung = system: NCI-H226 lung
UACC-257 melanoma = system: UACC-257 melanoma
COLO 205 colon = system: COLO 205 colon
A498 renal = system: A498 renal
ACHN renal = system: ACHN renal
MDA-N = system: MDA-N
PC-3 prostate = system: PC-3 prostate
SN12C renal = system: SN12C renal
HCC-2998 colon = system: HCC-2998 colon
SF-295 CNS = system: SF-295 CNS
HCT-116 colon = system: HCT-116 colon
A549 NSCLC = system: A549 NSCLC
HL-60(TB) leukemia = system: HL-60(TB) leukemia
TK-10 renal = system: TK-10 renal
SNB-19 CNS = system: SNB-19 CNS
MALME-3M melanoma = system: MALME-3M melanoma
UO-31 renal = system: UO-31 renal
T-47D breast = system: T-47D breast
LOX IMVI melanoma = system: LOX IMVI melanoma
IGROV1 ovarian = system: IGROV1 ovarian
BT-549 breast = system: BT-549 breast
786-0 renal = system: 786-0 renal
UACC-62 melanoma = system: UACC-62 melanoma
HCT-15 colon = system: HCT-15 colon
M14 melanoma = system: M14 melanoma
CAKI-1 renal = system: CAKI-1 renal
CCRF-CEM leukemia = system: CCRF-CEM leukemia
SNB-75 CNS = system: SNB-75 CNS
MOLT-4 leukemia = system: MOLT-4 leukemia
KM20L2 colon = system: KM20L2 colon
M19-MEL melanoma = system: M19-MEL melanoma
LXFL 529 NSCLC = system: LXFL 529 NSCLC
DMS 273 small cell lung = system: DMS 273 small cell lung
DMS 114 small cell lung = system: DMS 114 small cell lung
XF 498 CNS = system: XF 498 CNS

In the case of `C/C=N\n1c(C)c(C#N)c(C#N)c1N`, the TGI (SR leukemia) is reported as > 100 µM, the TGI (SK-MEL-5 melanoma) is reported as > 100 µM and the TGI (OVCAR-5 ovarian) is reported as > 100 µM. The TGI (EKVX NSCLC) was > 100 µM, the TGI (HOP-92 NSCLC) was > 100 µM and the TGI (SF-268 CNS) was > 100 µM. The TGI (KM12 colon) was > 100 µM, the TGI (U251 CNS) was > 100 µM and the TGI (HS 578T breast) was > 100 µM. For the same molecule, the TGI (SK-MEL-2 melanoma) was > 100 µM, the TGI (NCI-H23 lung) was > 100 µM and the TGI (SK-OV-3 ovarian) was > 100 µM. The TGI (NCI/ADR-RES ovarian) was > 100 µM, the TGI (HT29 colon) was > 100 µM and the TGI (SF-539 CNS) was > 100 µM. For the same molecule, the TGI (SW-620 colon) was > 100 µM, the TGI (HOP-62 NSCLC) was > 100 µM and the TGI (NCI-H522 lung) was > 100 µM. The TGI (OVCAR-3 ovarian) was > 100 µM, the TGI (DU-145 prostate) was > 100 µM and the TGI (OVCAR-8 ovarian) was > 100 µM. For the same molecule, the TGI (RPMI-8226 leukemia) was > 100 µM, the TGI (OVCAR-4 ovarian) was > 100 µM and the TGI (MDA-MB-435) was > 100 µM. The TGI (MDA-MB-231 breast) was > 100 µM, the TGI (RXF 393 renal) was > 100 µM and the TGI (MCF7 breast) was > 100 µM. The TGI (K-562 leukemia) was > 100 µM, the TGI (NCI-H226 lung) was > 100 µM and the TGI (UACC-257 melanoma) was > 100 µM. For the same molecule, the TGI (COLO 205 colon) was > 100 µM, the TGI (A498 renal) was > 100 µM and the TGI (ACHN renal) was > 100 µM. The TGI (MDA-N) was > 100 µM, the TGI (PC-3 prostate) was > 100 µM and the TGI (SN12C renal) was > 100 µM. The TGI (HCC-2998 colon) was > 100 µM, the TGI (SF-295 CNS) was > 100 µM and the TGI (HCT-116 colon) was > 100 µM. For the same molecule, the TGI (A549 NSCLC) was > 100 µM, the TGI (HL-60(TB) leukemia) was > 100 µM and the TGI (TK-10 renal) was > 100 µM. The TGI (SNB-19 CNS) was > 100 µM, the TGI (MALME-3M melanoma) was > 100 µM and the TGI (UO-31 renal) was > 100 µM. For the same molecule, the TGI (T-47D breast) was > 100 µM, the TGI (LOX IMVI melanoma) was > 100 µM and the TGI (IGROV1 ovarian) was > 100 µM. For the same molecule, the TGI (BT-549 breast) was > 100 µM, the TGI (786-0 renal) was > 100 µM and the TGI (UACC-62 melanoma) was > 100 µM. The TGI (HCT-15 colon) was > 100 µM, the TGI (M14 melanoma) was > 100 µM and the TGI (CAKI-1 renal) was > 100 µM. The TGI (CCRF-CEM leukemia) was > 100 µM, the TGI (SNB-75 CNS) was > 100 µM and the TGI (MOLT-4 leukemia) was > 100 µM.

For `CN(C)[C@H]1CC[C@H]2[C@@H]3CCC4C[C@@H](NC(=O)NC(Cc5ccccc5)c5nccs5)CC[C@]4(C)[C@H]3CC[C@]12C` (some centres not stated), the TGI (SR leukemia) was 4.14 µM, the TGI (SK-MEL-5 melanoma) was 3.38 µM and the TGI (OVCAR-5 ovarian) was 3.2 µM. It also gave a TGI (HOP-92 NSCLC) of 2.82 µM, a TGI (KM12 colon) of 3.44 µM and a TGI (HS 578T breast) of 5.36 µM. The TGI (SK-MEL-2 melanoma) was 3.41 µM, the TGI (NCI-H23 lung) was 3.89 µM and the TGI (SK-OV-3 ovarian) was 3.09 µM. For the same molecule, the TGI (NCI/ADR-RES ovarian) was 4.83 µM, the TGI (HT29 colon) was 1.9 µM and the TGI (SF-539 CNS) was 3.37 µM. For the same molecule, the TGI (OVCAR-3 ovarian) was 3.43 µM, the TGI (DU-145 prostate) was 6.67 µM and the TGI (RPMI-8226 leukemia) was 3.28 µM. It also gave a TGI (OVCAR-4 ovarian) of 3.18 µM, a TGI (KM20L2 colon) of 2.81 µM and a TGI (NCI-H226 lung) of 3.89 µM. The TGI (M19-MEL melanoma) was 3.41 µM, the TGI (UACC-257 melanoma) was 3.63 µM and the TGI (COLO 205 colon) was 3.05 µM. It also gave a TGI (ACHN renal) of 2.86 µM, a TGI (LXFL 529 NSCLC) of 1.61 µM and a TGI (PC-3 prostate) of 2.35 µM. It also gave a TGI (SN12C renal) of 3.36 µM, a TGI (DMS 273 small cell lung) of 3.86 µM and a TGI (HCC-2998 colon) of 3.16 µM. For the same molecule, the TGI (HCT-116 colon) was 1.33 µM, the TGI (HL-60(TB) leukemia) was 0.376 µM and the TGI (TK-10 renal) was 3.89 µM. It also gave a TGI (SNB-19 CNS) of 3.74 µM, a TGI (MALME-3M melanoma) of 3.37 µM and a TGI (UO-31 renal) of 3.38 µM. For the same molecule, the TGI (LOX IMVI melanoma) was 3.46 µM, the TGI (DMS 114 small cell lung) was 3.31 µM and the TGI (UACC-62 melanoma) was 3.46 µM. It also gave a TGI (HCT-15 colon) of 2.03 µM, a TGI (M14 melanoma) of 3.23 µM and a TGI (CAKI-1 renal) of 3.11 µM. It also gave a TGI (XF 498 CNS) of 2.51 µM.
